Measured values: publication PMC10641818, “Development of First-in-Class Dual Sirt2/HDAC6 Inhibitors as Molecular Tools for Dual Inhibition of Tubulin Deacetylation” (Journal of Medicinal Chemistry, 2023)

Legend:
Sirt2 [1] = target: T1, Sirt2 (Homo sapiens, UniProt Q8IXJ6); experiment: Sirt2 in vitro deacetylation assay (ZMAL, trypsin-based fluorescence); format: biochemical; conditions: deacetylation, mean ± SD
T1 construct: the respective sirtuin (Sirt1_134–747, Sirt2_56–356, or Sirt3_118–395) was mixed with; made in house; host or cells: Escherichia coli BL21 Star (DE3)
T1 sequence (Q8IXJ6 56-356): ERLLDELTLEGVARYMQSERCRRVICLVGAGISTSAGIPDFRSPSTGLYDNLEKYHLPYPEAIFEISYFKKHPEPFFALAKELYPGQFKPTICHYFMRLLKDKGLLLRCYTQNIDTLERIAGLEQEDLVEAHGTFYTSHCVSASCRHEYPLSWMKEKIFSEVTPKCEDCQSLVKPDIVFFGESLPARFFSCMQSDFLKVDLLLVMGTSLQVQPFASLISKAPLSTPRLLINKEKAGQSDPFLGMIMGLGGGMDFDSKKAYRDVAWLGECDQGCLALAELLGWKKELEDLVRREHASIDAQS

Sirt1 = target: T2, Sirt1 (Homo sapiens, UniProt Q96EB6); experiment: Sirt1 in vitro deacetylation assay (ZMAL); format: biochemical
T2 construct: the respective sirtuin (Sirt1_134–747, Sirt2_56–356, or Sirt3_118–395) was mixed with; made in house; host or cells: Escherichia coli BL21 Star (DE3)
T2 sequence (Q96EB6 134-747): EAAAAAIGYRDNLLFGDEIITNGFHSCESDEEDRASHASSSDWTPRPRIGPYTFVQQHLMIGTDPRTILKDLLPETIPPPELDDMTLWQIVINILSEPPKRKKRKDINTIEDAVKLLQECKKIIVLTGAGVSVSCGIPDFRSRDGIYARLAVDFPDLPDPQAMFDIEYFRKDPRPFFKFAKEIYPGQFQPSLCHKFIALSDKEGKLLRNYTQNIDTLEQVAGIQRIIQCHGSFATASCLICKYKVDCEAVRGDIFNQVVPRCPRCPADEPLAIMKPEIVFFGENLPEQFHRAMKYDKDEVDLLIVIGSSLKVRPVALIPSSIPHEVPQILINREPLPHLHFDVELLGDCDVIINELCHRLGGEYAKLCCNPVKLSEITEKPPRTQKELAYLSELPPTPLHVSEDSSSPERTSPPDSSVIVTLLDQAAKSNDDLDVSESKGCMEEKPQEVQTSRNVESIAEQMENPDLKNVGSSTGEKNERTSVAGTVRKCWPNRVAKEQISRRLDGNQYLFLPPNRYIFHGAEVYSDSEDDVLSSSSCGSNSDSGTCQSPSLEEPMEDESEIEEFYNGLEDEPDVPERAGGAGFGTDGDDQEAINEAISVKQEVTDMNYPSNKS

Sirt3 = target: T3, Sirt3 (Homo sapiens, UniProt Q9NTG7); experiment: Sirt3 in vitro deacetylation assay (ZMAL); format: biochemical
T3 construct: the respective sirtuin (Sirt1_134–747, Sirt2_56–356, or Sirt3_118–395) was mixed with; made in house; host or cells: Escherichia coli BL21 Star (DE3)
T3 sequence (Q9NTG7 118-395): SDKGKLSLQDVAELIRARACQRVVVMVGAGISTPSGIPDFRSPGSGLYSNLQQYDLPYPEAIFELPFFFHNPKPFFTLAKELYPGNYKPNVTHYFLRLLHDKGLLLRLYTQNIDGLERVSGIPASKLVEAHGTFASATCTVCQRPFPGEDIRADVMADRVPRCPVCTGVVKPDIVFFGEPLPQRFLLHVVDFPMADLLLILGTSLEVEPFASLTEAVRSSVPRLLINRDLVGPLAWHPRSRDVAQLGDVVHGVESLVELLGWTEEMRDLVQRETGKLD

Sirt2 (demyristoylation) = target: T4, Sirt2 (demyristoylation) (Homo sapiens, UniProt Q8IXJ6); experiment: Discontinuous Sirt2 demyristoylation assay (ZMML substrate); format: biochemical; conditions: mean ± SD
T4 construct: the respective sirtuin (Sirt1_134–747, Sirt2_56–356, or Sirt3_118–395) was mixed with; made in house; host or cells: Escherichia coli BL21 Star (DE3)
T4 sequence (Q8IXJ6 56-356): T1 sequence (Q8IXJ6 56-356)

Sirt2 [2] = target: T5, Sirt2 (Homo sapiens, UniProt Q8IXJ6); experiment: Cell-based NanoBRET assay for Sirt2 target engagement in HEK293T cells; conditions: tracer SirReal-TAMRA 2 μM, read-out: Cellular Sirt2 target engagement IC50 (NanoBRET)
T5 construct: expressed in transfected cells; host or cells: HEK293T
T5 sequence (Q8IXJ6 1-389): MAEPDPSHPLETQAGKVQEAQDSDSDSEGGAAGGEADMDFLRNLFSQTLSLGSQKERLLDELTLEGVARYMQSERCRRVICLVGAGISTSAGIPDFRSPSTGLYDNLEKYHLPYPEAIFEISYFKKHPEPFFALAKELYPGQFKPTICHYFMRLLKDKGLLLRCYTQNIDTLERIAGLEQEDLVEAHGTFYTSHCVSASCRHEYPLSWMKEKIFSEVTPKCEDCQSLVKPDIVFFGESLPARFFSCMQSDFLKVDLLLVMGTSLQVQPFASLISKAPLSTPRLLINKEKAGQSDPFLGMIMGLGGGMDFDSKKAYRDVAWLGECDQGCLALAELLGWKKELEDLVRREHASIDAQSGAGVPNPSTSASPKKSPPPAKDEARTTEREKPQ

[3] = system: HGC27 gastric carcinoma cells; experiment: Cell viability assay (MTS) HGC27; format: cell-based; conditions: Homo sapiens, HGC-27, 72 h
Procedure, shortened: (§1)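 HGC27 and PC-3M-luc cells (2000/well) were read by MTS after compound in 0.5% DMSO. W1 (10^4/well) and MCF-7 (2 × 10^3/well) were given half-log dilutions for 72 h, then MTT for 1 h, with absorbance at 570 nm minus 690 nm. Viability was fitted to a four-parameter logistic curve.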

W1 ovarian cancer cells = experiment: Cell viability assay (MTT) W1; format: cell-based; conditions: 72 h
Procedure, shortened: as §1

Sirt5 = target: T6, Sirt5 (Homo sapiens, UniProt Q9NXA8); experiment: Sirt5 in vitro deacylation HPLC assay; format: biochemical
T6 sequence (Q9NXA8 37-310): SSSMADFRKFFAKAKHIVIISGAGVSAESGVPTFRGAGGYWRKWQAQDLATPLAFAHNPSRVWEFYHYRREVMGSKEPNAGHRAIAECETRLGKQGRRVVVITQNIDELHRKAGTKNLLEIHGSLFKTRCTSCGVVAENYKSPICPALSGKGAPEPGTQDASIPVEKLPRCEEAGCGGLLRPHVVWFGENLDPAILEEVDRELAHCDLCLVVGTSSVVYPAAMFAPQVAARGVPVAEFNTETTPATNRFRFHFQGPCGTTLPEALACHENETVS

| IC50 (Sirt2 [1]) [nM] | inhibition at 20 µM (Sirt1) [%] | inhibition at 20 µM (Sirt3) [%] | IC50 (Sirt2 (demyristoylation)) [µM] | IC50 (Sirt2 [2]) [nM] | IC50 (Sirt5) [µM] | inhibition at 200 µM (Sirt5; @ 200 µM, read-out: Sirt5 percentual inhibition) [%] | inhibition at 500 µM (Sirt5; @ 500 µM, read-out: Sirt5 percentual inhibition) [%] | EC50 ([3]; MTS, mean ± SD) [µM] | EC50 (W1 ovarian cancer cells; MTT, mean ± SD) [µM] | Structure (SMILES) | inhibition at 50 µM ([3]; @ 50 μM, read-out: HGC27 percentual inhibition) [%] | inhibition at 100 µM (W1 ovarian cancer cells; @ 0.1 mM, read-out: W1 percentual inhibition) [%] |
| --- | --- | --- | --- | --- | --- | --- | --- | --- | --- | --- | --- | --- |
| 220 ± 10 | < 15 | < 15 | 1.4 ± 0.3 | 200 |  |  |  |  |  | Cc1cc(C)nc(SCC(=O)Nc2ncc(Cc3cccc(OCc4cn(Cc5ccccc5)nn4)c3)s2)n1 [Compound 4, SirReal1.1, reference compound] | 39 | 3 |
| 320 ± 110 | < 15 | < 15 | 9.7 ± 1.3 | 560 | > 500 | -2 | -1 | 12.9 ± 0.9 | 19.2 ± 1.3 | CCCCN(Cc1ccc(C(=O)NO)cc1)C(=O)CCCCn1cc(COc2cccc(Cc3cnc(NC(=O)CSc4nc(C)cc(C)n4)s3)c2)nn1 [Compound 33, 4-((N-Butyl-5-(4-((3-((2-(2-((4,6-dimethylpyrimidin-2-yl)thio)acetamido)thiazol-5-yl)methyl)phenoxy)methyl)-1H-1,2,3-triazol-1-yl)pentanamido)methyl)-N-hydroxybenzamide] |  |  |
